Tests used:
Test in all cases: relative viability (nuclei count vs DMSO), 5 days (fraction); higher = more cells survive
AZ3146 + Vorinostat = compound: CN1CCC(CC1)OC2=CC(=C(C=C2)NC3=NC=C4C(=N3)N(C(=O)N4C)C5CCCC5)OC [AZ3146] + O=C(CCCCCCC(=O)Nc1ccccc1)NO [Vorinostat] (partner 1 µM)
How it was run: (§1)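 Five library-drug doses in √10 steps were combined with a fixed anchor-drug dose, or a single drug was given alone, by pin tool to lung cancer cell lines in 1536-well plates the day after seeding. Nuclei were stained and counted after 5 days. Relative viability is the nuclei count in treated wells over that in vehicle wells, taken as the median of duplicate plates.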

AZ3146 + Phenformin = compound: CN1CCC(CC1)OC2=CC(=C(C=C2)NC3=NC=C4C(=N3)N(C(=O)N4C)C5CCCC5)OC [AZ3146] + N=C(N)NC(=N)NCCc1ccccc1 [Phenformin] (partner 250 µM)
How it was run: as §1

GSK-J4 + Palbociclib = compound: CCOC(=O)CCNc1cc(N2CCc3ccccc3CC2)nc(-c2ccccn2)n1 [GSK-J4] + CC(=O)c1c(C)c2cnc(Nc3ccc(N4CCNCC4)cn3)nc2n(C2CCCC2)c1=O [Palbociclib] (partner 0.5 µM)
How it was run: as §1

AZ3146 + Decitabine = compound: CN1CCC(CC1)OC2=CC(=C(C=C2)NC3=NC=C4C(=N3)N(C(=O)N4C)C5CCCC5)OC [AZ3146] + Nc1ncn([C@H]2C[C@H](O)[C@@H](CO)O2)c(=O)n1 [Decitabine] (partner 2 µM)
How it was run: as §1

Cell Line: UMC-11
- relative viability (AZ3146 + Vorinostat; first compound 0.08 µM): 0.299
- relative viability (AZ3146 + Vorinostat; first compound 0.253 µM): 0.389
- relative viability (AZ3146 + Vorinostat; first compound 0.8 µM): 0.406
- relative viability (AZ3146 + Vorinostat; first compound 2.53 µM): 0.267
- relative viability (AZ3146 + Vorinostat; first compound 8 µM): 0.175
- relative viability (AZ3146 + Phenformin; first compound 0.08 µM): 0.299
- relative viability (AZ3146 + Phenformin; first compound 0.253 µM): 0.311
- relative viability (AZ3146 + Phenformin; first compound 0.8 µM): 0.345
- relative viability (AZ3146 + Phenformin; first compound 2.53 µM): 0.317
- relative viability (AZ3146 + Phenformin; first compound 8 µM): 0.263
- relative viability (GSK-J4 + Palbociclib; first compound 0.5 µM): 0.367
- relative viability (GSK-J4 + Palbociclib; first compound 1.581 µM): 0.288
- relative viability (GSK-J4 + Palbociclib; first compound 15.81 µM): 0.35
- relative viability (GSK-J4 + Palbociclib; first compound 50 µM): 0.241
- relative viability (AZ3146 + Decitabine; first compound 0.08 µM): 0.435
- relative viability (AZ3146 + Decitabine; first compound 0.253 µM): 0.558
- relative viability (AZ3146 + Decitabine; first compound 0.8 µM): 0.454
- relative viability (AZ3146 + Decitabine; first compound 2.53 µM): 0.579
- relative viability (AZ3146 + Decitabine; first compound 8 µM): 0.385

From the supplement of paper PMC10307832
